These results are taken from patent US7361668B2 (priority 2001, dated 2008).

SMILES strings stand for the structures.

In one experiment the test system is muscarinic. Conditions: cited from earlier work.
In the case of `OC(C#CC1CN2CCC1CC2)(c1ccccc1)c1ccccc1` (stereo not drawn) [Alpha-(1-azabicyclo[2.2.2]oct-3-ylethynyl)-alpha-phenyl benzenemethanol], the muscarinic anticholinergic activity entry is given as “marked muscarinic anticholinergic activity”.

Another experiment deals with T1, human recombinant m3 receptor (Homo sapiens, UniProt P20309).
T1 construct: expressed in transfected cells; host or cells: CHO cells (membrane preparation)
T1 sequence (P20309 whole entry): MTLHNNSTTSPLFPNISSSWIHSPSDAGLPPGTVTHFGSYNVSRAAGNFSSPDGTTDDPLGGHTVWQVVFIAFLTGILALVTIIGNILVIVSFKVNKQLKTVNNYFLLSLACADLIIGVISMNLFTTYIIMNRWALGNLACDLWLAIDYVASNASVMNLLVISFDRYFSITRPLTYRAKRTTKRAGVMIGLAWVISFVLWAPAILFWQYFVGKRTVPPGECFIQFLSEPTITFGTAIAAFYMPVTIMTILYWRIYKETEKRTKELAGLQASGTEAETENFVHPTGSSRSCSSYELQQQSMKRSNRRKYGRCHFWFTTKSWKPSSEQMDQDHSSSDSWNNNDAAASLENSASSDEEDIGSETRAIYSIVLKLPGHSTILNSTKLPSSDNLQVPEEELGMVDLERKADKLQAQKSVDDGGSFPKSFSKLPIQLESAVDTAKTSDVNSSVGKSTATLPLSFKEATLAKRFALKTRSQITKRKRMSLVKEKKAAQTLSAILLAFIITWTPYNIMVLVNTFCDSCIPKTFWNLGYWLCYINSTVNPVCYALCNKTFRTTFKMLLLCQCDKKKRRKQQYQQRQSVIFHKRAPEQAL
In kind it is binding.
Settings: not given
Take `COC1(C#CC(C#N)(c2ccccc2)c2ccccc2)CN2CCC1CC2` (racemic) [Compound 64, 4-(3-methoxy-1-azabicyclo[2.2.2]oct-3-yl)-2,2-diphenyl-3-butynenitrile]: the “affinity (in words)” value is recorded as “High affinities”.

As for `CO[C@]1(C#CC(O)(c2ccccc2)c2cccc(C)c2)CN2CCC1CC2` (stereo partly drawn) [Compound 72, 3-[(3R)-3-methoxy-1-azabicyclo[2.2.2]oct-3-yl]-1-(3-methylphenyl)-1-phenylprop-2-yn-1-ol], the “affinity (in words)” value is “High affinities”.

For the compound `CO[C@]1(C#CC(O)(c2ccccc2)c2ccc3c(c2)CCC3)CN2CCC1CC2` (stereo partly drawn) [Compound 80, 1-(2,3-dihydro-1H-inden-5-yl)-3-[(3R)-3-methoxy-1-azabicyclo[2.2.2]oct-3-yl]-1-phenyl-2-propyn-1-ol], the “affinity (in words)” value is on record as “High affinities”.

`CO[C@]1(C#CC(O)(c2ccccc2)C2CCCCCCC2)CN2CCC1CC2` (stereo partly drawn) [Compound 89, 1-cyclooctyl-3-[(3R)-3-methoxy-1-azabicyclo[2.2.2]oct-3-yl]-1-phenyl-2-propyn-1-ol]: the “affinity (in words)” value is “High affinities”.

As for `CO[C@]1(C#CC(O)(c2ccccc2)C2CCCCCCC2)CN2CCC1CC2` (stereo partly drawn) [Compound 90, 1-cyclooctyl-3-[(3R)-3-methoxy-1-azabicyclo[2.2.2]oct-3-yl]-1-phenyl-2-propyn-1-ol], the “affinity (in words)” value is “High affinities”.

In the case of `CO[C@]1(C#CC(O)(c2ccccc2)C2CCCCCCC2)CN2CCC1CC2` (stereo partly drawn) [Compound 91, 1-cyclooctyl-3-[(3R)-3-methoxy-1-azabicyclo[2.2.2]oct-3-yl]-1-phenyl-2-propyn-1-ol], the “affinity (in words)” value was “High affinities”.

On to `OC(C#CC1(F)CN2CCC1CC2)(c1ccccc1)C1CCCCC1` (stereo not drawn) [Compound 111, 1-cyclohexyl-3-(3-fluoro-1-azabicyclo[2.2.2]oct-3-yl)-1-phenylprop-2-yn-1-ol], for which the “affinity (in words)” value is “High affinities”.

In the case of `CO[C@]1(C#CC(F)(c2ccccc2)C2CCCCC2)CN2CCC1CC2` (stereo partly drawn) [Compound 113, (3R)-3-(3-cyclohexyl-3-fluoro-3-phenyl-1-propynyl)-3-methoxy-1-azabicyclo[2.2.2]octane], the “affinity (in words)” value is given as “High affinities”.

For the compound `CO[C@]1(C#CC(O)(c2cccs2)C2CCCCC2)CN2CCC1CC2` (stereo partly drawn) [Compound 115, 1-cyclohexyl-3-[(3R)-3-methoxy-1-azabicyclo[2.2.2]oct-3-yl]-1-(2-thienyl)-2-propyn-1-ol], the “affinity (in words)” value is listed as “High affinities”.

Take `CO[C@]1(C#CC(O)(c2ccccc2)C2CCCCCC2)CN2CCC1CC2` (stereo partly drawn) [Compound 116, 1-cycloheptyl-3-[(3R)-3-methoxy-1-azabicyclo[2.2.2]oct-3-yl]-1-phenyl-2-propyn-1-ol]: the “affinity (in words)” value is given as “High affinities”.

On to `CO[C@]1(C#C[C@](O)(c2ccccc2)C2CCCCCC2)CN2CCC1CC2` [Compound 117, (1R)-1-cycloheptyl-3-[(3R)-3-methoxy-1-azabicyclo[2.2.2]oct-3-yl]-1-phenyl-2-propyn-1-ol], for which the “affinity (in words)” value is given as “High affinities”.

As for `CO[C@]1(C#C[C@@](O)(c2ccccc2)C2CCCCCC2)CN2CCC1CC2` [Compound 118, (1S)-1-cycloheptyl-3-[(3R)-3-methoxy-1-azabicyclo[2.2.2]oct-3-yl]-1-phenyl-2-propyn-1-ol], the “affinity (in words)” value is reported as “High affinities”.

With `CO[C@]1(C#C[C@](O)(c2ccccc2)C2CCCCCC2)C[N+]2(C)CCC1CC2.[I-]` [Compound 119, (3R)-3-[(3R)-3-cycloheptyl-3-hydroxy-3-phenyl-1-propynyl]-3-methoxy-1-methyl-1-azoniabicyclo[2.2.2]octane iodide], the “affinity (in words)” value was “High affinities”.

With `CO[C@]1(C#CC(O)(c2cccnc2)C2CCCCCC2)CN2CCC1CC2` (stereo partly drawn) [Compound 122, 1-cycloheptyl-3-[(3R)-3-methoxy-1-azabicyclo[2.2.2]oct-3-yl]-1-(3-pyridinyl)-2-propyn-1-ol], the “affinity (in words)” value was “High affinities”.

Turning to `CO[C@]1(C#CC(O)(c2cccs2)C2CCCCCC2)CN2CCC1CC2` (stereo partly drawn) [Compound 123, 1-cycloheptyl-3-[(3R)-3-methoxy-1-azabicyclo[2.2.2]oct-3-yl]-1-(2-thienyl)-2-propyn-1-ol], the “affinity (in words)” value is listed as “High affinities”.

Turning to `CO[C@]1(C#CC(O)(c2cccnc2F)C2CCCCCC2)CN2CCC1CC2` (stereo partly drawn) [Compound 124, 1-cycloheptyl-1-(2-fluoro-3-pyridinyl)-3-[(3R)-3-methoxy-1-azabicyclo[2.2.2]oct-3-yl]-2-propyn-1-ol], the “affinity (in words)” value is “High affinities”.

As for `CO[C@]1(C#CC(O)(c2ccccc2)C2CCC=CCC2)CN2CCC1CC2` (stereo partly drawn) [Compound 126, 1-(4-cyclohepten-1-yl)-3-[(3R)-3-methoxy-1-azabicyclo[2.2.2]oct-3-yl]-1-phenyl-2-propyn-1-ol], the “affinity (in words)” value is reported as “High affinities”.

Regarding `CO[C@]1(C#CC(O)(c2ccc(F)cc2)c2ccc(F)nc2)CN2CCC1CC2` (stereo partly drawn) [Compound 139, 1-(4-fluorophenyl)-1-(6-fluoro-3-pyridinyl)-3-[(3R)-3-methoxy-1-azabicyclo[2.2.2]oct-3-yl]-2-propyn-1-ol], the “affinity (in words)” value is listed as “High affinities”.

As to `CO[C@]1(C#CC(O)(c2ccc(F)cc2)c2cccnc2F)CN2CCC1CC2` (stereo partly drawn) [Compound 141, 1-(4-fluorophenyl)-1-(2-fluoro-3-pyridinyl)-3-[(3R)-3-methoxy-1-azabicyclo[2.2.2]oct-3-yl]-2-propyn-1-ol], the “affinity (in words)” value is listed as “High affinities”.

In the case of `CO[C@]1(C#CC(O)(c2cccs2)c2cccs2)C[N+]2(C)CCC1CC2.[I-]` [Compound 155, (3R)-3-[3-hydroxy-3,3-di(2-thienyl)-1-propynyl]-3-methoxy-1-methyl-1-azoniabicyclo[2.2.2]octane iodide], the “affinity (in words)” value is on record as “High affinities”.

For `CO[C@]1(C#CC(O)(c2ccccc2)C23CC4CC(CC(C4)C2)C3)CN2CCC1CC2` (stereo partly drawn) [Compound 162, 1-(1-adamantyl)-3-[(3R)-3-methoxy-1-azabicyclo[2.2.2]oct-3-yl]-1-phenyl-2-propyn-1-ol], the “affinity (in words)” value is reported as “High affinities”.

For `COC1(C#CC(O)(c2ccccc2)C2CC3C=CC2C3)CN2CCC1CC2` (stereo not drawn) [Compound 166, 1-bicyclo[2.2.1]hept-5-en-2-yl-3-(3-methoxy-1-azabicyclo[2.2.2]oct-3-yl)-1-phenyl-2-propyn-1-ol], the “affinity (in words)” value is given as “High affinities”.

For `CCC(CC)C(O)(C#C[C@@]1(OC)CN2CCC1CC2)c1ccccc1` (stereo partly drawn) [Compound 168, 4-ethyl-1-[(3R)-3-methoxy-1-azabicyclo[2.2.2]oct-3-yl]-3-phenyl-1-hexyn-3-ol], the “affinity (in words)” value is “High affinities”.

Take `C=CCCC(O)(C#C[C@@]1(OC)CN2CCC1CC2)c1ccccc1` (stereo partly drawn) [Compound 169, 1-[(3R)-3-methoxy-1-azabicyclo[2.2.2]oct-3-yl]-3-phenyl-6-hepten-1-yn-3-ol]: the “affinity (in words)” value is on record as “High affinities”.

Consider `CO[C@]1(C#CC(O)(c2ccccc2)C2CSCCSC2)CN2CCC1CC2` (stereo partly drawn) [Compound 172, 1-(1,4-dithiepan-6-yl)-3-[(3R)-3-methoxy-1-azabicyclo[2.2.2]oct-3-yl]-1-phenyl-2-propyn-1-ol], for which the “affinity (in words)” value is “High affinities”.

Turning to `CO[C@]1(C#CC(O)(c2ccccc2)C2CCSCC2)CN2CCC1CC2` (stereo partly drawn) [Compound 173, 3-[(3R)-3-methoxy-1-azabicyclo[2.2.2]oct-3-yl]-1-phenyl-1-tetrahydro-2H-thiopyran-4-yl-2-propyn-1-ol], the “affinity (in words)” value is given as “High affinities”.

For the compound `CO[C@]1(C#CC(O)(c2ccccc2)C2CCSCC2)CN2CCC1CC2` (stereo partly drawn) [Compound 174, 3-[(3R)-3-methoxy-1-azabicyclo[2.2.2]oct-3-yl]-1-phenyl-1-tetrahydro-2H-thiopyran-4-yl-2-propyn-1-ol], the “affinity (in words)” value is given as “High affinities”.

With `CO[C@]1(C#CC(O)(c2ccccc2)C2CC3CCC(C3)C2)CN2CCC1CC2` (stereo partly drawn) [Compound 176, 1-bicyclo[3.2.1]oct-3-yl-3-[(3R)-3-methoxy-1-azabicyclo[2.2.2]oct-3-yl]-1-phenyl-2-propyn-1-ol], the “affinity (in words)” value is “High affinities”.

Take `CO[C@]1(C#CC(O)(c2ccccc2)C2CC3CCC(C2)S3)CN2CCC1CC2` (stereo partly drawn) [Compound 177, 3-[(3R)-3-methoxy-1-azabicyclo[2.2.2]oct-3-yl]-1-phenyl-1-(8-thiabicyclo[3.2.1]oct-3-yl)-2-propyn-1-ol]: the “affinity (in words)” value was “High affinities”.

With `CO[C@]1(C#CC(O)(CC(C)(C)C)c2cccs2)CN2CCC1CC2` (stereo partly drawn) [Compound 185, 1-[(3R)-3-methoxy-1-azabicyclo[2.2.2]oct-3-yl]-5,5-dimethyl-3-(2-thienyl)-1-hexyn-3-ol], the “affinity (in words)” value was “High affinities”.

On to `CO[C@]1(C#CC(O)(CC2CCCC2)c2cccs2)CN2CCC1CC2` (stereo partly drawn) [Compound 188, 1-cyclopentyl-4-[(3R)-3-methoxy-1-azabicyclo[2.2.2]oct-3-yl]-2-(2-thienyl)-3-butyn-2-ol], for which the “affinity (in words)” value is listed as “High affinities”.

As to `CO[C@]1(C#CC(O)(c2ccccn2)c2ccc(Cl)s2)CN2CCC1CC2` (stereo partly drawn) [Compound 190, 1-(5-chloro-2-thienyl)-3-[(3R)-3-methoxy-1-azabicyclo[2.2.2]oct-3-yl]-1-(2-pyridinyl)-2-propyn-1-ol], the “affinity (in words)” value was “High affinities”.
